{"source": "paper PMC10281575", "about": "“PfCRT mutations conferring piperaquine resistance in falciparum malaria shape the kinetics of quinoline drug binding and transport” (PLOS Pathogens, 2023)", "key": {"[1]": {"biological_target": "T1, PfCRT^Dd2_V141A (Plasmodium falciparum, UniProt Q8IBZ9, A220S/I356T/K76T/M74I/N326S/N75E/Q271E/R371I/V141A)", "T1 construct": "expressed in transfected cells; host or cells: Xenopus laevis oocytes", "T1 sequence (Q8IBZ9 1-424 M74I/N75E/K76T/V141A/A220S/Q271E/N326S/I356T/R371I)": "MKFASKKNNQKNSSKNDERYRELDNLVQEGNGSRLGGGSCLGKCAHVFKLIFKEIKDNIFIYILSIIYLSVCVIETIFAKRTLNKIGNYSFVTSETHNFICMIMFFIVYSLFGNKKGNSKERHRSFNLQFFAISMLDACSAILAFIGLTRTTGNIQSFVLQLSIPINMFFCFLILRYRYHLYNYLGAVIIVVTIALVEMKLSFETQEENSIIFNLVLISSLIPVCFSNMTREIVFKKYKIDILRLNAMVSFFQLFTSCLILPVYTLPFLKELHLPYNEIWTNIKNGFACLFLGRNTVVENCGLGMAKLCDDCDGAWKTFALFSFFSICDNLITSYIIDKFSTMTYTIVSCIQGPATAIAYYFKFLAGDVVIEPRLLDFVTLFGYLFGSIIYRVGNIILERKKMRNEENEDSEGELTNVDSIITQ", "test": "PfCRT-mediated CQ transport in oocytes expressing PfCRT^Dd2_V141A", "type": "cell-based", "details": "S6 Fig; per biological replicate", "text": "(§1) The docking results reflect the differences in the experimentally measured affinities of the two compounds for PfCRT^Dd2, with CQ having less favorable docking scores compared to PPQ (S1 Table). […] In this pose, CQ forms polar contacts via the two positively charged nitrogens: the nitrogen of the diethylamino tail makes a salt bridge with E75 on TM1 and the nitrogen of the 4-amminoquinoline ring makes a hydrogen bond with S257 on TM7. Hydrophobic contacts are established by the quinoline ring with I260, V141, and F145.\n(§2) Drug transport assays were performed as previously described. Briefly, measurements of radiolabeled drug uptake were made over 1 h, unless otherwise specified. […] Where specified, one or more unlabeled drugs were also present at the indicated concentrations. […] The radioactivity in the sample was measured using a liquid scintillation analyser Tri-Carb 4910 TR (PerkinElmer). Water-injected oocytes were analyzed in parallel as a negative control. The buffer from each condition was measured in duplicate in parallel to each experiment to transform counts per minute into pmol of drug. Drug uptake attributable to PfCRT was determined by subtracting the background uptake from water-injected oocytes from that of PfCRT-expressing oocytes. […]"}, "[2]": {"biological_target": "T2, PfCRT^Dd2_I260A (Plasmodium falciparum, UniProt Q8IBZ9, A220S/I260A/I356T/K76T/M74I/N326S/N75E/Q271E/R371I)", "T2 construct": "expressed in transfected cells; host or cells: Xenopus laevis oocytes", "T2 sequence (Q8IBZ9 1-424 M74I/N75E/K76T/A220S/I260A/Q271E/N326S/I356T/R371I)": "T1 sequence (Q8IBZ9 1-424 M74I/N75E/K76T/V141A/A220S/Q271E/N326S/I356T/R371I) with A141V, I260A", "test": "PfCRT-mediated CQ transport in oocytes expressing PfCRT^Dd2_I260A", "type": "cell-based", "details": "S6 Fig; per biological replicate", "text": "as §1, §2"}}, "note": "Changes are numbered by the printed parent chain. Where “and” joins values, the source holds several entries; their conditions need not be identical. Equal entries are not always repeated.", "data": [{"compound": "CCN(CC)CCCC(C)Nc1ccnc2cc(Cl)ccc12", "note": "(centres unmarked) [CQ, chloroquine]", "values": [{"measurement": "PfCRTDd2_V141A-mediated CQ transport", "setting": "[1]", "value": "1.080 pmol oocyte-1 h-1 and 0.460 pmol oocyte-1 h-1 and 1.360 pmol oocyte-1 h-1"}, {"measurement": "PfCRTDd2_I260A-mediated CQ transport", "setting": "[2]", "value": "2.260 pmol oocyte-1 h-1 and 2.400 pmol oocyte-1 h-1 and 3.540 pmol oocyte-1 h-1"}]}]}
